Non-standard residues stand in square brackets, D forms with d. Residues, ends and D or L forms follow the SMILES beside them. Nle = CCCC[C@H](N)C(=O)O; βAla = NCCC(=O)O
Key:
mouse BRS-3 = target: T1, mouse BRS-3 (Mus musculus, UniProt O54798, S28P/V27A); assay: Calcium mobilization assay (FLIPR), same expression system; assay type: cell-based; conditions: data not shown
T1 construct: expressed in transfected cells; host or cells: same expression system as rat BRS-3 (pE3 / 293EBNA)
T1 sequence (O54798 1-399 V27A/S28P): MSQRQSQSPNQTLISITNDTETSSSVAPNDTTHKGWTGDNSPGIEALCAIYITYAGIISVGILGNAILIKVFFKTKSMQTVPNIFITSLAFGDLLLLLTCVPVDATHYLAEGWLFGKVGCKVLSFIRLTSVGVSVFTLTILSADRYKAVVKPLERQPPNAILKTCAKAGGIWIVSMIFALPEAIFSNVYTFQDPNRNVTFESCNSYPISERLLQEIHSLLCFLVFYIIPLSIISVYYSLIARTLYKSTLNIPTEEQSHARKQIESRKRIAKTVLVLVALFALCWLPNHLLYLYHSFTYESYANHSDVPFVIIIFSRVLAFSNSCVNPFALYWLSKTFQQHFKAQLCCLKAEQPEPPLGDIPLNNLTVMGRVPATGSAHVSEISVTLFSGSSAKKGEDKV

human BRS-3 = target: T2, human BRS-3 (Homo sapiens, UniProt P32247); assay: Calcium mobilization assay (FLIPR), transfected 293EBNA cells; assay type: cell-based
T2 construct: expressed in transfected cells; host or cells: 293EBNA cells, pE3 expression vector
T2 sequence (P32247 1-399): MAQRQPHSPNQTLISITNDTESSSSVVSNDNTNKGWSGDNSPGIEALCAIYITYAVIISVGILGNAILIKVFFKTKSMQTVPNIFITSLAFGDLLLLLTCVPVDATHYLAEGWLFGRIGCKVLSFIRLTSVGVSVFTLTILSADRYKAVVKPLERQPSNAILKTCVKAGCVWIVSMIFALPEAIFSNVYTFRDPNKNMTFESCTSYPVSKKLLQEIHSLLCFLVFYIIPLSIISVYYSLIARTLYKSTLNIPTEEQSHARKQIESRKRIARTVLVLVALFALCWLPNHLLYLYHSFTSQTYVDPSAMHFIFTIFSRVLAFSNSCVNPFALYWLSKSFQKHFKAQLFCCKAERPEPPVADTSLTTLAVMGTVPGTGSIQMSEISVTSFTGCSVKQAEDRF
Description: The functional activity of rat BRS-3 was also studied by measuring the agonist-induced calcium mobilization response using a Fluorescence Imaging Plate Reader (Molecular Devices, Sunnyvale, Calif.). Transfected 293EBNA cells were plated onto poly-D-lysine coated 96-well plates with black wall and clear bottom (Becton Dickinson, Franklin Lakes, N.J.). After 16-48 hr culture, the cells were loaded with 4 uM Fluo-3-AM fluorescent calcium-indicator dye (Molecular Probes, Eugene, OR) in assay buffer (Hank's balanced salts solution, 10 mM HEPES, pH7.4, 0.1% bovine serum albumin, 2.5 mM probenecid).
The changes in intracellular calcium concentration, as indicated by Fluo-3 fluorescence, were immediately measured by FLIPR. Maximal changes in fluorescence over base line were used to determine agonist response.
The EC50 values were mean±S.E. calculated from dose-response curves of 3-5 repeated experiments using FLIPR assays.

CCCC[C@H](NC(=O)[C@H](Cc1ccccc1)NC(=O)[C@H](Cc1c[nH]cn1)NC(=O)CCNC(=O)[C@@H](NC(=O)[C@H](C)NC(=O)[C@H](Cc1c[nH]c2ccccc12)NC(=O)[C@H](CCC(N)=O)NC(=O)[C@H](N)Cc1ccc(O)cc1)C(C)C)C(N)=O [dYB, [D-Tyr6-betaAla11-Phe13-Nle14] bombesin (6-14)] (H-[dY]QWAV[βAla]HF[Nle]-NH2)
EC50 (mouse BRS-3): in the uM range

CCCC[C@H](NC(=O)[C@H](Cc1ccccc1)NC(=O)[C@H](Cc1cnc[nH]1)NC(=O)CCNC(=O)[C@@H](NC(=O)[C@H](C)NC(=O)[C@H](Cc1c[nH]c2ccccc12)NC(=O)[C@H](CCC(N)=O)NC(=O)[C@H](N)Cc1ccc(O)cc1)C(C)C)C(N)=O [dYB, [D-Tyr6-betaAla11-Phe13-Nle14] bombesin (6-14)] (H-[dY]QWAV[βAla]HF[Nle]-NH2)
EC50 (human BRS-3): 1.2 ± 0.4 nM

Source: patent US20050222402A1, “Dna encoding rat bombesin receptor subtype-3 (brs-3) and uses thereof” (priority 2001, published 2005)
